# Source: PubChem BioAssay AID1259407 (Chemical Carcinogenesis Research Information System (CCRIS), 2018)
# Calls of active or inactive are those of the source. No rule for the calls is given here.
# Test system: CCRIS mutagenicity, Ames/micronucleus/aberration tests
# Assay: CCRIS mutagenicity studies
# [1] = End Point: IN VITRO CHROMOSOMAL ABERRATIONS, Test System: CHL CELLS, Metabolic Activation: NONE
# [2] = End Point: IN VITRO CHROMOSOMAL ABERRATIONS, Test System: CHL CELLS, Metabolic Activation: RAT, LIVER, S-9, SODIUM PHENOBARBITAL AND 5,6-BENZOFLAVONE
# [3] = Test System: AMES SALMONELLA TYPHIMURIUM, Strain/Indicator: TA98, Metabolic Activation: NONE, Method: PREINCUBATION
# [4] = Test System: AMES SALMONELLA TYPHIMURIUM, Strain/Indicator: TA100, Metabolic Activation: NONE, Method: PREINCUBATION
# [5] = Test System: AMES SALMONELLA TYPHIMURIUM, Strain/Indicator: TA1535, Metabolic Activation: NONE, Method: PREINCUBATION
# [6] = Test System: AMES SALMONELLA TYPHIMURIUM, Strain/Indicator: TA1537, Metabolic Activation: NONE, Method: PREINCUBATION
# [7] = Test System: AMES SALMONELLA TYPHIMURIUM, Strain/Indicator: TA100, Metabolic Activation: RAT, LIVER, S-9, AROCLOR 1254, Method: STANDARD PLATE
# [8] = Test System: AMES SALMONELLA TYPHIMURIUM, Strain/Indicator: TA98, Metabolic Activation: NONE, Method: STANDARD PLATE
# [9] = Test System: AMES SALMONELLA TYPHIMURIUM, Strain/Indicator: TA98, Metabolic Activation: RAT, LIVER, S-9, AROCLOR 1254, Method: STANDARD PLATE
# [10] = Test System: AMES SALMONELLA TYPHIMURIUM, Strain/Indicator: TA100, Metabolic Activation: NONE, Method: STANDARD PLATE
compound,measurement,setting,value
Clc1ccc(C(Cl)(Cl)Cl)cc1,mutagenic call,[1],active; positive (structural changes)
same,mutagenic call,[2],active; positive (structural changes)
same,mutagenic call,[3],inactive; negative
same,mutagenic call,"Test System: AMES SALMONELLA TYPHIMURIUM, Strain/Indicator: TA98, Metabolic Activation: RAT LIVER S-9, PHENOBARBITAL AND BETA-NAPHTHOFLAVONE, Method: PREINCUBATION",active; positive
same,mutagenic call,[4],inactive; negative
same,mutagenic call,"Test System: AMES SALMONELLA TYPHIMURIUM, Strain/Indicator: TA100, Metabolic Activation: RAT LIVER S-9, PHENOBARBITAL AND BETA-NAPHTHOFLAVONE, Method: PREINCUBATION",active; positive
same,mutagenic call,[5],inactive; negative
same,mutagenic call,"Test System: AMES SALMONELLA TYPHIMURIUM, Strain/Indicator: TA1535, Metabolic Activation: RAT LIVER S-9, PHENOBARBITAL AND BETA-NAPHTHOFLAVONE, Method: PREINCUBATION",active; positive
same,mutagenic call,[6],inactive; negative
same,mutagenic call,"Test System: AMES SALMONELLA TYPHIMURIUM, Strain/Indicator: TA1537, Metabolic Activation: RAT LIVER S-9, PHENOBARBITAL AND BETA-NAPHTHOFLAVONE, Method: PREINCUBATION",active; positive
same,mutagenic call,"Test System: AMES SALMONELLA TYPHIMURIUM, Strain/Indicator: TA1538, Metabolic Activation: NONE, Method: PREINCUBATION",inactive; negative
same,mutagenic call,"Test System: AMES SALMONELLA TYPHIMURIUM, Strain/Indicator: TA1538, Metabolic Activation: RAT LIVER S-9, PHENOBARBITAL AND BETA-NAPHTHOFLAVONE, Method: PREINCUBATION",inactive; negative
same,mutagenic call,"Test System: E.COLI, Strain/Indicator: WP2UVRA, Metabolic Activation: NONE, Method: PREINCUBATION",inactive; negative
same,mutagenic call,"Test System: E.COLI, Strain/Indicator: WP2UVRA, Metabolic Activation: RAT LIVER S-9, PHENOBARBITAL AND BETA-NAPHTHOFLAVONE, Method: PREINCUBATION",active; positive
CCCCOCCOCCSC#N,mutagenic call,"Test System: AMES SALMONELLA TYPHIMURIUM, Strain/Indicator: TA97, Metabolic Activation: HAMSTER, LIVER, S-9, AROCLOR 1254 (10%), Method: PREINCUBATION",inactive; negative
same,mutagenic call,"Test System: AMES SALMONELLA TYPHIMURIUM, Strain/Indicator: TA97, Metabolic Activation: HAMSTER, LIVER, S-9, AROCLOR 1254 (30%), Method: PREINCUBATION",inactive; negative
same,mutagenic call,"Test System: AMES SALMONELLA TYPHIMURIUM, Strain/Indicator: TA97, Metabolic Activation: NONE, Method: PREINCUBATION",inactive; negative
same,mutagenic call,"Test System: AMES SALMONELLA TYPHIMURIUM, Strain/Indicator: TA97, Metabolic Activation: RAT, LIVER, S-9, AROCLOR 1254 (10%), Method: PREINCUBATION",inactive; negative
same,mutagenic call,"Test System: AMES SALMONELLA TYPHIMURIUM, Strain/Indicator: TA97, Metabolic Activation: RAT, LIVER, S-9, AROCLOR 1254 (30%), Method: PREINCUBATION",inactive; negative
same,mutagenic call,"Test System: AMES SALMONELLA TYPHIMURIUM, Strain/Indicator: TA98, Metabolic Activation: HAMSTER, LIVER, S-9, AROCLOR 1254 (10%), Method: PREINCUBATION",inactive; negative
same,mutagenic call,"Test System: AMES SALMONELLA TYPHIMURIUM, Strain/Indicator: TA98, Metabolic Activation: HAMSTER, LIVER, S-9, AROCLOR 1254 (30%), Method: PREINCUBATION",inactive; negative
same,mutagenic call,[3],inactive; negative
same,mutagenic call,"Test System: AMES SALMONELLA TYPHIMURIUM, Strain/Indicator: TA98, Metabolic Activation: RAT, LIVER, S-9, AROCLOR 1254 (10%), Method: PREINCUBATION",inactive; negative
same,mutagenic call,"Test System: AMES SALMONELLA TYPHIMURIUM, Strain/Indicator: TA98, Metabolic Activation: RAT, LIVER, S-9, AROCLOR 1254 (30%), Method: PREINCUBATION",inactive; negative
same,mutagenic call,"Test System: AMES SALMONELLA TYPHIMURIUM, Strain/Indicator: TA100, Metabolic Activation: HAMSTER, LIVER, S-9, AROCLOR 1254 (10%), Method: PREINCUBATION",inactive; negative
same,mutagenic call,"Test System: AMES SALMONELLA TYPHIMURIUM, Strain/Indicator: TA100, Metabolic Activation: HAMSTER, LIVER, S-9, AROCLOR 1254 (30%), Method: PREINCUBATION",inactive; negative
same,mutagenic call,[4],inactive; negative
same,mutagenic call,"Test System: AMES SALMONELLA TYPHIMURIUM, Strain/Indicator: TA100, Metabolic Activation: RAT, LIVER, S-9, AROCLOR 1254 (10%), Method: PREINCUBATION",inactive; negative
same,mutagenic call,"Test System: AMES SALMONELLA TYPHIMURIUM, Strain/Indicator: TA100, Metabolic Activation: RAT, LIVER, S-9, AROCLOR 1254 (30%), Method: PREINCUBATION",inactive; negative
same,mutagenic call,"Test System: AMES SALMONELLA TYPHIMURIUM, Strain/Indicator: TA1535, Metabolic Activation: HAMSTER, LIVER, S-9, AROCLOR 1254 (10%), Method: PREINCUBATION",inactive; negative
same,mutagenic call,"Test System: AMES SALMONELLA TYPHIMURIUM, Strain/Indicator: TA1535, Metabolic Activation: HAMSTER, LIVER, S-9, AROCLOR 1254 (30%), Method: PREINCUBATION",inactive; negative
same,mutagenic call,[5],inactive; negative
same,mutagenic call,"Test System: AMES SALMONELLA TYPHIMURIUM, Strain/Indicator: TA1535, Metabolic Activation: RAT, LIVER, S-9, AROCLOR 1254 (10%), Method: PREINCUBATION",inactive; negative
same,mutagenic call,"Test System: AMES SALMONELLA TYPHIMURIUM, Strain/Indicator: TA1535, Metabolic Activation: RAT, LIVER, S-9, AROCLOR 1254 (30%), Method: PREINCUBATION",inactive; negative
same,mutagenic call,"Test System: AMES SALMONELLA TYPHIMURIUM, Strain/Indicator: TA1537, Metabolic Activation: HAMSTER, LIVER, S-9, AROCLOR 1254 (30%), Method: PREINCUBATION",inactive; negative
same,mutagenic call,[6],inactive; negative
same,mutagenic call,"Test System: AMES SALMONELLA TYPHIMURIUM, Strain/Indicator: TA1537, Metabolic Activation: RAT, LIVER, S-9, AROCLOR 1254 (30%), Method: PREINCUBATION",inactive; negative
Cc1c2ccccc2c(CO)c2ccc3ccccc3c12,mutagenic call,"Test System: AMES SALMONELLA TYPHIMURIUM, Strain/Indicator: TA98, Metabolic Activation: HUMAN, LIVER, CYTOSOL, PAPS, Method: PREINCUBATION",active; positive
same,mutagenic call,"Test System: AMES SALMONELLA TYPHIMURIUM, Strain/Indicator: TA100, Metabolic Activation: RAT, LIVER, PARENCHYMAL CELLS (CRYOPRESERVED), Method: PREINCUBATION",inactive; negative
same,mutagenic call,"Test System: AMES SALMONELLA TYPHIMURIUM, Strain/Indicator: TA100, Metabolic Activation: RAT, LIVER, PARENCHYMAL CELLS (FRESHLY ISOLATED), Method: PREINCUBATION",active; positive
same,mutagenic call,[7],active; positive
same,mutagenic call,"Test System: CHINESE HAMSTER V-79, Strain/Indicator: V-79/6-THIOGUANINE, Metabolic Activation: CELL-MEDIATED, Method: STANDARD PLATE",active; positive
same,mutagenic call,"Test System: CHINESE HAMSTER V-79, Strain/Indicator: V-79/OUABAIN, Metabolic Activation: CELL-MEDIATED, Method: STANDARD PLATE",active; positive
Nc1ccc([N+](=O)[O-])cc1[N+](=O)[O-],mutagenic call,[1],inactive; negative
same,mutagenic call,[2],active; positive (structural changes)
same,mutagenic call,"End Point: IN VITRO CHROMOSOMAL ABERRATIONS, Test System: HUMAN PERIPHERAL LYMPHOCYTES, Metabolic Activation: NONE",active; positive
same,mutagenic call,[3],active; positive
same,mutagenic call,[8],active; positive
same,mutagenic call,[9],active; positive
same,mutagenic call,"Test System: AMES SALMONELLA TYPHIMURIUM, Strain/Indicator: TA98, Metabolic Activation: RAT, LIVER, S-9, KANECHLOR 500, Method: PREINCUBATION",active; positive
same,mutagenic call,[4],active; positive
same,mutagenic call,[10],inactive; negative
same,mutagenic call,[7],inactive; negative
same,mutagenic call,"Test System: AMES SALMONELLA TYPHIMURIUM, Strain/Indicator: TA100, Metabolic Activation: RAT, LIVER, S-9, KANECHLOR 500, Method: PREINCUBATION",active; positive
same,mutagenic call,"Test System: UDS RODENT HEPATOCYTES, Strain/Indicator: THY INCORP (NON-S-PHASE), Metabolic Activation: NONE, Method: AUTORADIOGRAPHY",inactive; negative
O=[N+]([O-])c1c2c(c3ccc4cccc5ccc1c3c45)C=CCC2,mutagenic call,[8],inactive; negative
same,mutagenic call,[9],inactive; negative
same,mutagenic call,[10],inactive; negative
same,mutagenic call,[7],inactive; negative
Cc1ccccc1C1=C(C(=O)O)O1,mutagenic call,[10],inactive; negative
